Results reported in US8932597B2 (priority 2008, dated 2015).

Experiments:
[1] = test system: mAb 8i10; assay type: binding, human
[2] = test system: mAb 23K12; assay type: binding, human
[3] = test system: 2N9 control antibody; assay type: binding
[4] = test system: 14C2 antibody; assay type: binding
[5] = test system: HuM2e antibody 8I10; assay type: binding, human
[6] = test system: HuM2e antibody 23K12; assay type: binding, human
[7] = test system: anti-M2 human monoclonal antibody Z3G1; assay type: binding

Substance | Binding activity to truncated M2 peptides, ELISA absorbance at 450 nm, 8i10 [1] | Binding activity to truncated M2 peptides, ELISA absorbance at 450 nm, 23K12 [2] | Binding activity to truncated M2 peptides, ELISA absorbance at 450 nm, 2N9 [3] | Binding activity to truncated M2 peptides, ELISA absorbance at 450 nm, 14C2 [4] | Signal (peptides that bind to 23K21 and 8I10) [6] | further results
IRNEWGCRCNDSSD [CM14] | 0.14 | 0.36 | 0.13 | 0.23 | – | –
LLTEVETPIRNEWGCR [M16] | 0.09 | 0.21 | 0.09 | 3.94 | – | –
SLLTEVE [NM7] | 0.10 | 0.20 | 0.08 | 0.14 | – | –
SLLTEVET [NM8] | 0.10 | 0.20 | 0.09 | 0.15 | – | –
SLLTEVETPIRN [NM12] | 0.10 | 0.24 | 0.09 | 0.20 | – | –
PIRNEWGCRCNDSSD [CM15] | 0.12 | – | 0.11 | – | – | –
SLLTEVETPIRNEWGCR [NM17] | 0.26 | 0.58 | 0.10 | 3.99 | – | –
SLLTEVETPIRNEW [NM14] | 0.11 | – | 0.09 | – | – | –
RNEWGCRCNDSSD [CM13] | 0.14 | – | 0.13 | – | – | –
MSLLTEVETPIRNEWGCRCNDSSD [M2e] | 0.13 | 0.43 | 0.10 | 3.98 | – | –
SLLTEVETPIR [NM11] | 0.13 | 0.30 | 0.12 | 0.21 | – | –
CSLLTECGSLLTCV (epitope peptide) [SEQ ID NO: 463] | – | – | – | – | – | Binding to 8I10 (in words) [5]: very best specific binder; Binding to 23K12 (in words) [6]: very best specific binder
VETPIRNEWGCR [M12] | 0.09 | 0.20 | 0.09 | 0.15 | – | –
SLLTEVETPI [NM10] | 0.10 | 0.24 | 0.10 | 0.17 | – | –
SLLTEVETPIRNEWG [NM15] | 0.12 | – | 0.11 | – | – | –
NEWGCRCNDSSD [CM12] | 0.14 | 0.39 | 0.14 | 0.27 | – | –
SLLTEVETPIRNEWGCRCNDSSD [M2] | 0.11 | 0.22 | 0.06 | 3.85 | – | –
ETPIRNEWGCRCNDSSD [CM17] | 0.11 | – | 0.11 | – | – | –
SLLTEVETPIRNEWGC [NM16] | 0.29 | 0.62 | 0.09 | 3.90 | – | –
SLLTEVETP [NM9] | 0.12 | – | 0.19 | – | – | –

Substance | Binding activity to truncated M2 peptides, ELISA absorbance at 450 nm, 8i10 [1] | Binding activity to truncated M2 peptides, ELISA absorbance at 450 nm, 23K12 [2] | Binding activity to truncated M2 peptides, ELISA absorbance at 450 nm, 2N9 [3] | Binding activity to truncated M2 peptides, ELISA absorbance at 450 nm, 14C2 [4] | Signal (peptides that bind to 23K21 and 8I10) [6] | further results
TPIRNEWGCRCNDSSD [CM16] | 0.13 | 0.35 | 0.12 | 0.23 | – | –
LTEVETPIRNEWGCR [M15] | 0.09 | – | 0.09 | – | – | –
503 (SLLTEVETPIRNEWGCWCNDSSD; epitope peptide) [compound 503] | – | – | – | – | 1061 | Signal (peptides that show specific binding to Z3G1) [7]: 2437
592 (MSLCTEVGCSLLTEC; epitope peptide) [compound 592] | – | – | – | – | 840 | Signal (peptides that bind to Z3G1) [7]: 1971
293 (CSLLTEVGMSLLTEV; epitope peptide) [compound 293] | – | – | – | – | 2039 | Signal (peptides that bind to Z3G1) [7]: 2827
559 (SLLTEVETAIRNEWGCRCNDSSD; epitope peptide) [compound 559] | – | – | – | – | 895 | Signal (peptides that show specific binding to Z3G1) [7]: 2415
SLLTEVETPIRNE [NM13] | 0.11 | – | 0.10 | – | – | –
562 (SLLTEVETPIRWEWGCRCNDSSD; epitope peptide) [compound 562] | – | – | – | – | 890 | Signal (peptides that show specific binding to Z3G1) [7]: 2302
623 (SLLTEVETCIRNEWGCRCNDSSD; epitope peptide) [compound 623] | – | – | – | – | 800 | Signal (peptides that show specific binding to Z3G1) [7]: 1992
651 (SLLTEVETPIRNEWGCRCHDSSD; epitope peptide) [compound 651] | – | – | – | – | 758 | Signal (peptides that bind to Z3G1) [7]: 2350
318 (SLLTEVETPIRNEWGCRCKDSSD; epitope peptide) [compound 318] | – | – | – | – | 1802 | Signal (peptides that bind to Z3G1) [7]: 2549
421 (SLLTEVETPIRNEWGCRCNDSED; epitope peptide) [compound 421] | – | – | – | – | 944 | Signal (peptides that bind to Z3G1) [7]: 2527
438 (SLLTEVETPIRN; epitope peptide) [compound 438] | – | – | – | – | 751 | Signal (peptides that bind to Z3G1) [7]: 2130
519 (SLLTEVETPIRNEWGCRSNDSSD; epitope peptide) [compound 519] | – | – | – | – | 1016 | Signal (peptides that show specific binding to Z3G1) [7]: 2344
602 (SLLTEVETEIRNEWGCRCNDSSD; epitope peptide) [compound 602] | – | – | – | – | 828 | Signal (peptides that show specific binding to Z3G1) [7]: 2368
599 (SLLTEVERPIRNEWGCRCNDSSD; epitope peptide) [compound 599] | – | – | – | – | 834 | Signal (peptides that show specific binding to Z3G1) [7]: 2131
309 (CSLLTEVGMSLLCEV; epitope peptide) [compound 309] | – | – | – | – | 1891 | Signal (peptides that bind to Z3G1) [7]: 2734
435 (SLLTEVETP; epitope peptide) [compound 435] | – | – | – | – | 899 | Signal (peptides that bind to Z3G1) [7]: 2380
585 (SLLTEVETPIRLEWGCRCNDSSD; epitope peptide) [compound 585] | – | – | – | – | 853 | Signal (peptides that show specific binding to Z3G1) [7]: 2468
297 (CSLLTEVGMCLCTCV; epitope peptide) [compound 297] | – | – | – | – | 1972 | Signal (peptides that bind to Z3G1) [7]: 2649
